row,Compound,melting point [°C]
1,C=C(c1ccccc1)[C@@H](C)[C@H](NC(=O)C(F)(F)F)C(=O)O,108
2,COc1ccc(OC)c(C(=O)/C=C/c2ccc3c(c2)OCO3)c1,101
3,CC(C)=CCNC(=N)N[N+](=O)[O-],134 to 136
4,Cc1cc(-c2nc3cccnn3c2-c2ccnc(NC(=O)c3cccnc3C)c2)ccc1F,258 to 259
5,CN1CC2c3ccccc3Cc3ncccc3N2C1 (stereo not drawn),127 to 129
6,COC(=O)NS(=O)(=O)Nc1c(C(C)C)cccc1C(C)C,152 to 155
7,CC(C)(C)c1cc(CCc2ccccc2NC(=O)NCC2(c3ccc4c(c3)OCO4)CCCC2)cc(C(C)(C)C)c1O,188 to 189
8,Cn1nc(C(F)(F)F)nc1Oc1cc(On2c(=O)cc(C(F)(F)F)n(C)c2=O)c(F)cc1Cl,138 to 140
9,CC(C)(C)c1cc(C[Si](C)(C)C)cc(C(C)(C)C)c1S,100 to 101
10,CCCCCCCCCCCCCCCCCCC(=O)Nc1ccn(C2OC(CO)C(O)C2O)c(=O)n1 (stereo not drawn),139 to 142
11,CCOC(=O)c1c(C)nn(-c2ccc(F)cc2)c1C,59 to 60
12,CCOC(=O)c1c(-c2ccccc2)c2ccc(Cl)cc2c(=O)n1C,152 to 153
13,CCCNc1c(CN)cnc2cn[nH]c12,97 to 100
14,CCCCNC(=O)N1N=C(c2ccc([N+](=O)[O-])cc2)c2cc(Cl)ccc2CC1C (stereo not drawn),150
15,Cc1coc2c(C(=O)c3cccs3)cc(C(C)(C)C)c(O)c12,145
16,CC(=O)OC[C@H]1O[C@@H](c2ccc(C)c(Cc3ccc(-c4ccc(F)cc4)s3)c2)[C@H](OC(C)=O)[C@@H](OC(C)=O)[C@@H]1OC(C)=O,160 to 170
17,CONS(=O)(=O)c1ccc(Cl)s1,65.5 to 66.5
18,CCN(C1CC(C)(C)Oc2ccc(O)cc21)S(C)(=O)=O (stereo not drawn),169 to 170
19,Cc1[nH]c(-c2ccccc2)nc1C(=O)C=CN(C)C,218 to 222
20,Cn1cncc1C(O)(c1cccc(I)c1)c1ccc2c(c1)c(-c1cccc(Cl)c1)cc(=O)n2C (stereo not drawn),226
21,O=C1Nc2nnccc2C(=O)C1c1c(F)cc(F)cc1F (stereo not drawn),> 330
22,CCCCOc1cc(CCC(=O)O)ccc1CCCc1ccc(OCC)c(OC)c1,66
23,O=C(NCCO)C(F)(OC(F)(F)C(F)(F)C(F)(F)F)C(F)(F)F (stereo not drawn),69 to 72
24,O=C(Nc1ccccc1)Nc1cc(Cl)ccc1C(=O)O,186 to 188
25,CSc1c(C(Cc2ccccc2)C(=O)O)cc(C)c2c1[nH]c1ccccc12 (stereo not drawn),186 to 187
26,CC(Cn1cncn1)(O[Si](C)(C)C)c1ccc(F)cc1F (stereo not drawn),51 to 53

row,Compound,melting point [°C]
1,CO[C@]12C[C@@H](CCN3CCC(O)(c4ccc(Cl)cc4)CC3)CN(C)[C@@H]1Cc1c[nH]c3cccc2c13,133 to 139
2,COC(=O)c1ccc(CC(C)NCC(O)c2ccccc2Cl)cc1 (stereo not drawn),109 to 110
3,Cc1c(SC(=S)N(C)C)sn(-c2ccccc2)c1=O,158 to 160
4,COc1ccc2c(Cc3c(Cl)cncc3Cl)nnc(NN)c2c1,297 to 299
5,COc1cc2ncnc(N3CCc4cccc(C)c43)c2cc1OC,146 to 147
6,Cc1cc(N(C)C)cc(C)c1NC(NCCCCCCCc1ccc(C(C)(C)C)cc1)=C1C(=O)COC1=O,144 to 147
7,O=Cc1c([N+](=O)[O-])ccc(Cl)c1[N+](=O)[O-],101 to 102
8,CCC1=C(C)C(=O)NC1C (stereo not drawn),83
9,COC(=O)CC(C(OC)OC)C(C)(C)S(=O)(=O)c1ccc(C)cc1 (stereo not drawn),110
10,CCC(=O)OCC=C(C)CCC=C(C)CCC=C(C)CCC=C(C)CCC=C(C)CCC=C(C)CCC=C(C)CCC=C(C)CCC=C(C)C,33 to 35
11,Cc1ccc(Nc2nc(-c3ccc(OC(F)(F)F)cc3)cs2)nc1,205 to 207
12,O=C(O)Cn1cc(Cc2nc3c(F)c(F)cc(F)c3s2)c2cc(OCc3ccccc3)ccc21,165 to 168
13,Cc1ccc(-n2nc(C(C)(C)C)cc2NC(=O)Nc2ccc(OCCc3ccncc3)c3ccccc23)cn1,189 to 190
14,CCCc1c(OCc2ccc(C(=O)OCC)c(OCC)c2)ccc(C(C)=O)c1O,92 to 94
15,C=CCNS(=O)(=O)c1ccc(Br)cc1,63 to 65
16,CSc1nn(C(=O)NC(C)CCl)c(=O)n1N (stereo not drawn),136
17,O=C(C(=O)N(CC(F)(F)F)S(=O)(=O)C(F)(F)F)N(CC(F)(F)F)S(=O)(=O)C(F)(F)F,43 to 45
18,COc1cc2c3c(nc4ccccc4c3c1)-c1ccccc1N2C,214 to 216
19,CC(C)(C)c1cc(CN(C=O)n2ccnc2)cc(C(C)(C)C)c1O,167
20,O=C(CSCCN1C(=O)c2ccccc2C1=O)c1ccc(F)cc1,124 to 126
21,Nc1cn(-c2cccnc2)nc1Cl,70 to 72
22,CC(=O)OC1OC(CF)C(OC(C)=O)C1OC(C)=O (stereo not drawn),98 to 101
23,CCOC(=O)C(C)Oc1ccc2c(=O)c(-c3ccccc3)coc2c1 (stereo not drawn),165 to 166
24,CCN(CC)C(=O)COc1cc(N)c(Cl)cc1C(=O)OC,97.5 to 99.5
25,CSc1ccc(-c2cc(C(F)F)nn2-c2ccc(C(C)=O)cc2)cc1,143 to 145

# The remaining lines, values ahead:
row,melting point [°C],Compound
1,201,COC(=O)C1(N)C(=O)Nc2ccccc2CC1c1ccccc1 (stereo not drawn)
2,96.8,O=C(NC1CC1)c1cc(Nc2nc(N3CCC[C@H]3CO)nc3ccoc23)n[nH]1
3,122 to 124,COC(=O)c1ncnn1C1OC(COC(=O)c2ccccc2)C(OC(=O)c2ccccc2)C1OC(=O)c1ccccc1 (stereo not drawn)
4,> 310,O=C(O)C1CCN(c2ccc3nc4[nH]c(=O)[nH]c4cc3c2)CC1
5,147 to 148,COc1ccc(C2=NN(c3ccccn3)C(=O)[C@H]3CC=CC[C@@H]23)cc1OC (relative stereo)
6,136 to 138,CC1(C)CC(NC(=O)CCC(=O)O)CC(C)(C)N1OC1CCCCC1
7,80 to 83,Cc1ccc(S(=O)(=O)N2CCC[C@H]2C(=O)N[C@@H](Cc2ccc(OCCCN3CCN(C)CC3)cc2)C(=O)O)cc1
8,171 to 172,c1ccc(OCC2CN(Cc3nc4ccccc4[nH]3)CCO2)cc1 (racemic)
9,110 to 120,COc1ccc2c(c1)CCC1=C2CCC2(C)C(=O)CCC12 (stereo not drawn)
10,120,N#Cc1ccc(C2CCCC(=O)N2c2ccccc2)cc1 (stereo not drawn)
11,185 to 186,O=C(O)CCc1oc(N2CCCCC2)nc1-c1ccc(Cl)cc1
12,244 to 246,COc1cc2ncnc(N3CCN(C(=O)Nc4ccc(N=Nc5ccccc5)cc4)CC3)c2cc1OC
13,246 to 248,Cc1cc(C)c(Nc2nc(C)ncc2S(=O)(=O)c2ccc(O)cc2)c(C)c1
14,189 to 190,CC(=O)Nc1ccc2c(c1)CCC(CC#N)C2=O (stereo not drawn)
15,334 to 336,O=C1Cc2ccc(-c3cnc4[nH]c(=O)n(CC5CCCCC5)c4n3)cc2N1
16,107 to 108,Cn1nc(-c2c(Cl)cc(C(F)(F)F)cc2Cl)c([N+](=O)[O-])c1N
17,251,Cc1c(C(=O)Nc2ccc(N3CCC(N4CCOCC4)CC3)c(C#N)c2)cnn1-c1ccccn1
18,178 to 181,Brc1ccc(N2CCCN(c3ccc(Br)cn3)CC2)nc1
19,91 to 92,O=C(Nn1ccnc1)N1CCCCC1COCc1ccccc1Cl (stereo not drawn)
20,133 to 135,COc1cc2c(Nc3ccc4cn[nH]c4c3)c(C#N)cnc2cc1OCCN1CCOCC1
21,221 to 223,Cc1cc(NCc2ccc(-c3ccccc3C#N)cc2)n2nccc2n1
22,132 to 133,CCCNC(=O)C1(O)CC(O)C(O)C(O)C1 (stereo not drawn)
23,237 to 238,Cc1ccsc1C(=O)c1sc(Nc2ccc(N3CCN(C)CC3)cc2)nc1N
24,55 to 60,C=Cc1cn(-c2c(Cl)cc(C(F)(F)F)cc2Cl)cc1C#N

row,melting point [°C],Compound
1,157 to 158,N#Cc1cnc(N[C@H]2CC[C@H](O)CC2)c([N+](=O)[O-])c1
2,228,CN1CCC(Sc2[nH]nc(-c3ccc(Cl)cc3)c2-c2ccncc2)CC1
3,157 to 159,ON=Cc1cc2c(cn1)[nH]c1ccccc12
4,221 to 223,Cc1cc(C)c(Nc2nc(C)ncc2S(=O)(=O)c2ccc(N3CCOCC3)cc2)c(C)c1
5,104 to 106,CCOc1ccc(C2=NN(c3ccc(C(=O)N4CCSCC4)cc3)C(=O)[C@H]3CC=CC[C@@H]23)cc1OCC (relative stereo)
6,141 to 143,COc1cc2c(cc1OC)CC(N(C)CCCN1CCc3cc(OC)c(OC)cc3C(O)C1=O)CC2 (stereo not drawn)
7,243 to 244,CC(=O)c1cnc2c(c1)[C@@H](NC(=O)c1ccccc1Cl)[C@H](O)C(C)(C)O2 (relative stereo)
8,205,COC(=O)OC[C@@H]1CC(c2ccc(-c3ccc(N4C[C@H](Cn5ccnn5)OC4=O)cc3F)cn2)=NO1
9,217 to 220,O=c1c2cc(OCc3ccccc3)ccc2[nH]c2c([N+](=O)[O-])cc([N+](=O)[O-])c(Cl)c12
10,198 to 200,CC(CCC(O)C(C)(C)O)C1CCC2C3CC=C4CC(O)CC(O)C4(C)C3CCC12C (stereo not drawn)
11,195 to 199,O=[N+]([O-])c1ccc(-c2cnc3nc(SCc4ccccc4)nn3c2)cc1
12,174 to 176,Cc1cccc2ncc(C(=O)NC3CCCCC3)c(=O)n12
13,224 to 225,O=C(Cn1c(-c2ccc(Cl)cc2)nc2cccnc21)N1CCCC1
14,156 to 158,CC(=O)NCC1CC1c1c(-c2ccccc2)ccc2nn(C)cc12 (stereo not drawn)
15,175 to 176,CC1(C)CN=C(c2cc3cc(F)cc(NS(=O)(=O)c4cccs4)c3[nH]2)S1
16,107 to 115,CS(=O)(=O)Nc1c([N+](=O)[O-])cnn1-c1c(Cl)cc(C(F)(F)F)c(F)c1Cl
17,172 to 174,CCOCc1nc2c(N)nc3cc(N4CCCCS4(=O)=O)ccc3c2n1CCCOC(C)C
18,205 to 209,O=C(NCc1ccco1)c1cc2ccnc(Cl)c2[nH]1
19,103 to 104,CC(Br)C(=C(C#N)C#N)c1ccccc1 (stereo not drawn)
20,106,CCOC(=O)c1ccc(N2CCN(C)CC2)nn1
21,108 to 109,CCCCNC(=O)N1CC(Oc2cccc(C(F)(F)F)c2)C1
22,181 to 182,O=C(O)CCCCCN1CCN2c3ccccc3Cc3ccccc3C2C1 (stereo not drawn)
23,226,CCOC(=O)/C=C/c1cc2c(Nc3ccc4[nH]ccc4c3)c(C#N)cnc2s1

# Reference: a melting point compilation (Tetko et al.; mined from patent text by program, amines drawn as free bases though some values may be those of a salt)
